Consider 100 compounds from ChEMBL document CHEMBL3507680, “University of Dundee, Gates Library screen for HepG2 cell viability”.

This series can be described thus: Human HepG2 cell viability assay in 384 well format. The following applies: HepG2 cells, read-out: Inhibition. Set-up: dose 125 nL, time 70.5 hour; concentration not given beside the values. In kind it is toxicity, cell-based.
Turning to `CC(Nc1ncnc2c1CCNCC2)c1nc2c(s1)CCCC2` (stereo not given), the cytotoxicity at 70.5 h was -5.82%.

Regarding `CC(NC(=O)Nc1ccc(-n2cncn2)cc1)C(=O)NC(C)(C)C` (stereo not given), the cytotoxicity at 70.5 h is -29.6%.

Consider `Cc1cn2c(n1)CCC(NC(=O)COCCOc1ccccc1)C2` (stereo not given), for which the cytotoxicity at 70.5 h is -8.88%.

For the compound `COc1ccc(SC(C)C(=O)N2CCC(C(=O)N3CCCC3)CC2)cc1` (stereo not given), the cytotoxicity at 70.5 h was -5.49%.

As for `NC(=O)c1ccc(OCCCN2C[C@H](C3CC3)[C@@H](N)C2)cc1`, the cytotoxicity at 70.5 h was -5.8%.

For the compound `CCN1C[C@@H]2CN(C(=O)c3cccn3C)C[C@@H]2C1=O`, the cytotoxicity at 70.5 h is 8.28%.

Take `CCn1nc(C)c(NC(=O)CN2CC[C@@H](F)C2)c1C`: the cytotoxicity at 70.5 h was -4.28%.

In the case of `CN(Cc1ccon1)CC1CCOc2ccccc2C1` (stereo not given), the cytotoxicity at 70.5 h is -8.84%.

For the compound `CNC(=O)NCc1nn(-c2ccccc2)c2c1CCC2`, the cytotoxicity at 70.5 h was -4.98%.

In the case of `CC(C)Cc1cc(C(=O)NCc2nnc[nH]2)[nH]n1`, the cytotoxicity at 70.5 h is -13.4%.

For `COc1cccc(S(=O)(=O)N2C[C@@H](N(C)C)[C@H](C(C)C)C2)c1`, the cytotoxicity at 70.5 h is -0.713%.

As to `CN(C)CCN1C(=O)CCC12CCN(C(=O)c1cccnc1)CC2`, the cytotoxicity at 70.5 h was -4%.

`CC(C)c1nn(C)c(N(C)C)c1CNC(C)c1ccc2c(c1)OCO2` (stereo not given): the cytotoxicity at 70.5 h was found to be 20%.

Regarding `NC(=O)CCCNC(=O)Cc1csc(Cc2ccccn2)n1`, the cytotoxicity at 70.5 h is -135%.

In the case of `CCCC(C)NC(=O)CCN1C(=O)CCc2cc(F)ccc21` (stereo not given), the cytotoxicity at 70.5 h was 2.38%.

With `Cc1cc(CN2C[C@@H](N3CCN(C)CC3)[C@H]3OCCC[C@H]32)oc1C`, the cytotoxicity at 70.5 h was -4.18%.

As for `O=C(NCCc1ccccc1)N1CC[C@@H]2CNS(=O)(=O)[C@@H]2CC1`, the cytotoxicity at 70.5 h was 0.679%.

Regarding `Cc1ccc(CNCc2cc(Br)c3c(c2)OCO3)cc1`, the cytotoxicity at 70.5 h is -5.25%.

Regarding `O=C1[C@H]2CN(S(=O)(=O)c3cccs3)C[C@H]2CN1CC1CC1`, the cytotoxicity at 70.5 h was -2.27%.

`CCn1c(CN(C)C)nnc1C1CCN(c2nccc(NC)n2)CC1`: the cytotoxicity at 70.5 h was -2.22%.

Take `O=C(NC1CC1)[C@@]12CCO[C@@H]1CCN(Cc1ccc3c(c1)OCO3)C2`: the cytotoxicity at 70.5 h was 2.54%.

`COc1ccccc1CN1CC(O)CN(S(=O)(=O)C(C)C)CC1=O` (stereo not given): the cytotoxicity at 70.5 h stood at 16.7%.

With `CC(N)C(=O)N1CCC(Oc2cccc(C(F)(F)F)c2)CC1` (stereo not given), the cytotoxicity at 70.5 h worked out at 11.5%.

Consider `CCN1CC(C(=O)NCc2ccnc(-n3cccn3)c2)CC1=O` (stereo not given), for which the cytotoxicity at 70.5 h was -4.01%.

As for `NC(=O)C1CCCN1Cc1cccc(NC(=O)c2ccc(Cl)cc2F)c1` (stereo not given), the cytotoxicity at 70.5 h was -20.5%.

For `Cc1sc2nc(CCN)nc(N3CCS(=O)(=O)CC3)c2c1C`, the cytotoxicity at 70.5 h is -0.146%.

Regarding `COc1ccccc1C(C)N1CCN(S(C)(=O)=O)CC1` (stereo not given), the cytotoxicity at 70.5 h was 11.4%.

For the compound `CCN1CC[C@@]2(C(=O)N3CCOCC3)CCN(S(=O)(=O)CC)CC[C@@H]12`, the cytotoxicity at 70.5 h came to 3.2%.

Turning to `CN(Cc1ccccc1)CC(C)(C)NC(=O)c1ccon1`, the cytotoxicity at 70.5 h was -4.18%.

For `Cc1cccc(CN2C(=O)CC[C@@H]3[C@H]2CCN3C(=O)c2ccsc2)n1`, the cytotoxicity at 70.5 h was -12.3%.

In the case of `COc1ccc(C2CCCN2c2cnc3ccccc3n2)c(OC)c1` (stereo not given), the cytotoxicity at 70.5 h is -4.21%.

Regarding `Cc1cc(F)ccc1NC(=O)Cn1cc(C(=O)O)ccc1=O`, the cytotoxicity at 70.5 h is -18.2%.

Take `Cc1cnc2n(c1=O)C(CC(=O)NCc1cccnc1)CS2` (stereo not given): the cytotoxicity at 70.5 h was -0.178%.

Turning to `CNC(=O)c1cn[nH]c1C1CCN(Cc2cccc(C)c2OC)C1` (stereo not given), the cytotoxicity at 70.5 h is -3.82%.

For the compound `CCOc1ccc(C(=O)n2cccn2)cc1`, the cytotoxicity at 70.5 h is -4.2%.

As to `CN1CCCc2cc(CNC(=O)c3cc[n+]([O-])cc3)ccc21`, the cytotoxicity at 70.5 h is -6.17%.

For `O=C(Cc1ccccc1O)NC1CCCN(c2ccccc2F)C1=O` (stereo not given), the cytotoxicity at 70.5 h was -18.3%.

Consider `CC1=C[C@@H](CC#N)[C@H](C(C)C)C[C@H]1CC(=O)N1CCN(CCO)CC1`, for which the cytotoxicity at 70.5 h was -8.18%.

As to `CC(C)c1noc(CN(C)C(=O)C2COc3ccccc3C2)n1` (stereo not given), the cytotoxicity at 70.5 h was -7.56%.

`CS(=O)(=O)NCC(=O)NC(Cc1ccccc1)C1CCCC1` (stereo not given): the cytotoxicity at 70.5 h is -4.4%.

Turning to `Cc1ccsc1C(=O)NC1CCS(=O)(=O)c2ccccc21` (stereo not given), the cytotoxicity at 70.5 h is -5.17%.

Take `Cc1ccc(N2CCN(c3ccccc3C)CC2C)nn1` (stereo not given): the cytotoxicity at 70.5 h was -0.203%.

On to `Cc1cc(NC(=O)N(C)CCN2CCN(c3ccccc3)CC2)on1`, for which the cytotoxicity at 70.5 h is -2.89%.

In the case of `Cc1ccc(CN(C)C(=O)c2ccc(NC3CC3)nc2)o1`, the cytotoxicity at 70.5 h was -13.2%.

In the case of `CCn1c(Cn2cncn2)nnc1C1CCN(CCN)CC1`, the cytotoxicity at 70.5 h came to 17.7%.

For the compound `COc1ncnc2c1CCN(c1cccc(F)c1)CC2`, the cytotoxicity at 70.5 h was -6.07%.

For the compound `NC(=O)C1CN(c2ccc(F)cc2)CCN1` (stereo not given), the cytotoxicity at 70.5 h was -2.98%.

For the compound `CN1CCN(S(=O)(=O)c2cncc(F)c2)c2ccccc2C1`, the cytotoxicity at 70.5 h is -11.8%.

As for `Cc1cnn(CCNCC(O)COc2ccc(Cl)cc2Cl)c1` (stereo not given), the cytotoxicity at 70.5 h is -2.81%.

For the compound `Cc1nc(CNCC2CCCN(C(=O)OC(C)(C)C)C2)cs1` (stereo not given), the cytotoxicity at 70.5 h is 27.5%.

Take `Cc1ccc(CN2CCOCC2c2[nH]ncc2C)cn1` (stereo not given): the cytotoxicity at 70.5 h is -7.81%.

As to `O=C(NC1CC1)C1(Cc2ccccc2-c2ccncc2)CCOCC1`, the cytotoxicity at 70.5 h is 7.42%.

Consider `CCN1CCC2(CCN(c3ncccn3)CC2)C1=O`, for which the cytotoxicity at 70.5 h was -8.88%.

For the compound `CC1CCN(c2ncc(-c3ccccc3F)c(-c3nccn3C)n2)CC1`, the cytotoxicity at 70.5 h was -2.25%.

In the case of `CCn1cc(NC(=O)C2CCN(CC(=O)NC3CCCC3)CC2)cn1`, the cytotoxicity at 70.5 h is -0.528%.

Consider `CC(NC(=O)c1ccc2c(c1)OCC(=O)N2)c1ccccc1F` (stereo not given), for which the cytotoxicity at 70.5 h came out at 0.146%.

With `CCCc1nc(CNC2(c3nccs3)CCCC2)cs1`, the cytotoxicity at 70.5 h came out at 4.59%.

Turning to `O=C(O)Cn1ccc(=O)c2cc(Cl)ccc21`, the cytotoxicity at 70.5 h is -16.7%.

In the case of `COCCN1CC[C@]2(CN(C(=O)c3ccc[nH]3)C[C@H]2C)C1=O`, the cytotoxicity at 70.5 h is -7.41%.

On to `Cc1ccc2c(n1)N(CCn1cccn1)CCN(CC1CC1)C2`, for which the cytotoxicity at 70.5 h is -3.95%.

Take `COc1ccc(C2CCCN2S(=O)(=O)N(C)CC(C)C)cc1` (stereo not given): the cytotoxicity at 70.5 h is -1.91%.

Turning to `CC(C)CN1C(=O)C2(CCCC2)NC12CCSCC2`, the cytotoxicity at 70.5 h worked out at 0.871%.

In the case of `CSCC(=O)N1CCc2[nH]nc(-c3ccc4c(c3)OCO4)c2C1`, the cytotoxicity at 70.5 h was 0.0699%.

As for `O=C(Nc1ccc(CCN2CCC(O)CC2)cc1)C1CCCOC1` (stereo not given), the cytotoxicity at 70.5 h is -3.52%.

`N#Cc1cccc(CNC(=O)C2=NN(c3ccccc3)C(=O)CN2)c1`: the cytotoxicity at 70.5 h came to 9.97%.

As to `CC(=O)N1CCN(CC(=O)NCCCN(C)c2ccccc2)CC1`, the cytotoxicity at 70.5 h was -7.53%.

`Cn1cnc2c(N3CCCC3)nc(C3CCNCC3)cc21`: the cytotoxicity at 70.5 h was -17%.

Regarding `c1ccc(-n2cc(CN3CCCC3Cn3cccn3)nn2)cc1` (stereo not given), the cytotoxicity at 70.5 h is -10.7%.

For the compound `O=C(CN1CCCC1Cn1cncn1)NCCc1c(F)cccc1F` (stereo not given), the cytotoxicity at 70.5 h was 27.9%.

Turning to `CCN(Cc1ccncc1)Cc1c[nH]nc1-c1ccc(F)cc1`, the cytotoxicity at 70.5 h was -6.51%.

On to `Cc1cnc(CC2COCCN(C(=O)CN3CCCCC3)C2)cn1` (stereo not given), for which the cytotoxicity at 70.5 h was -2.32%.

Turning to `CCc1nc(C)c(C(=O)NCCNc2ncccn2)s1`, the cytotoxicity at 70.5 h is -6.37%.

For the compound `COc1ccc2c(c1)OCC(Cc1ccc(N(C)C)nc1)C2` (stereo not given), the cytotoxicity at 70.5 h was -4.83%.

For the compound `N#CCc1ccc(NC(=O)CNc2ccc(Br)cc2F)cc1`, the cytotoxicity at 70.5 h was -7.86%.

Consider `c1csc(CN2CCC3(CC2)CCN(CC2CCOCC2)C3)n1`, for which the cytotoxicity at 70.5 h stood at 0.161%.

For the compound `CC(C)n1cnnc1CN(C)Cc1ccc(CN(C)S(C)(=O)=O)o1`, the cytotoxicity at 70.5 h was -2.72%.

On to `Cc1cc(C)n(CCCN(C)C(=O)C2COc3ccccc3C2)n1` (stereo not given), for which the cytotoxicity at 70.5 h amounted to 26.5%.

In the case of `CC(=O)N1CCN(c2ccnc3c(F)cc(Br)cc23)CC1`, the cytotoxicity at 70.5 h is -1.55%.

Consider `CC(C)c1noc(CCC(=O)N2CCSCC2)n1`, for which the cytotoxicity at 70.5 h was -18.8%.

On to `Cc1cc(NC(=O)NCc2ccncc2)ccc1OC(C)C`, for which the cytotoxicity at 70.5 h is -3.47%.

On to `COc1cc(C)cc(OC)c1C(C(=O)O)N(C)Cc1c(C)nn(C)c1C` (stereo not given), for which the cytotoxicity at 70.5 h is -14.7%.

On to `O=C(NCC(O)c1ccc(F)cc1F)c1cccc(F)c1` (stereo not given), for which the cytotoxicity at 70.5 h is -2.46%.

For the compound `CCOC(=O)CNC(=O)NCc1cccn1Cc1ccccc1`, the cytotoxicity at 70.5 h was -13.4%.

Consider `COc1ccccc1OCC(=O)NS(=O)(=O)c1cc(F)ccc1F`, for which the cytotoxicity at 70.5 h is -4.75%.

`Cc1cc(C)c2cc(CNC3CCCCC3)c3nn(C)c(=O)n3c2c1`: the cytotoxicity at 70.5 h is 5.59%.

With `c1ccc2c(c1)OCCCC2NCc1nnc2n1CCCCC2` (stereo not given), the cytotoxicity at 70.5 h was -2.04%.

On to `CS(=O)(=O)NCCCSCc1cccc2cccnc12`, for which the cytotoxicity at 70.5 h was -9.28%.

Consider `Cc1nn(CCO)c(C)c1CNC1CCCCc2ccccc21` (stereo not given), for which the cytotoxicity at 70.5 h turned out to be 3.84%.

Take `CCN(Cc1ccc2c(c1)OCCO2)C(=O)Cn1cccnc1=O`: the cytotoxicity at 70.5 h is -5.36%.

Consider `CNC(=O)Cc1noc(-c2cc3c(s2)CCCC3)n1`, for which the cytotoxicity at 70.5 h was -8.17%.

Take `CC1CCc2n[nH]c(C(=O)N3CCc4c(nc(N(C)C)[nH]c4=O)C3)c2C1` (stereo not given): the cytotoxicity at 70.5 h was -13.8%.

On to `CC(C)C(C)(O)CNC(=O)Nc1ccccn1` (stereo not given), for which the cytotoxicity at 70.5 h is -1.52%.

Take `Cc1ncc(CNC(=O)Cc2cccs2)c(C2CCCN2C)n1` (stereo not given): the cytotoxicity at 70.5 h was -4.94%.

Turning to `Cc1cc(C)nc(N2CC[C@H](Oc3ccccc3F)[C@@H](O)CC2)n1`, the cytotoxicity at 70.5 h is -3.75%.

`Cc1ccc(CCNC(=O)c2cccnc2)o1`: the cytotoxicity at 70.5 h turned out to be 30.2%.

With `Cn1ncc2c1CCCN(C(=O)C1CCC1)C2`, the cytotoxicity at 70.5 h was -2.82%.

Turning to `O=S1(=O)CCC(n2cc(C3=CCN(CCn4cccc4)CC3)cn2)C1` (stereo not given), the cytotoxicity at 70.5 h stood at 26.8%.

Consider `O=C(Nc1ccccc1)N1CC(C(=O)N2CCCC2)C2(CCOCC2)C1` (stereo not given), for which the cytotoxicity at 70.5 h is -10.8%.

In the case of `Cc1nn(C)c(Cl)c1C1CCCN1C(=O)c1ccc[nH]1` (stereo not given), the cytotoxicity at 70.5 h was determined as 9.9%.

Consider `O=C(NCC1CCOC1)N1CCN(Cc2ccc3c(c2)CCO3)CC1` (stereo not given), for which the cytotoxicity at 70.5 h was -4.97%.
